The values that follow come from ChEMBL document CHEMBL1201862, “PubChem BioAssay data set” (2004).

Test systems include A549; ACHN; EKVX; HOP-92; KM12; MCF7; NCI-H23; NCI-H460; NCI/ADR-RES; RPMI-8226; SF-295; SK-MEL-5; SNB-19; T47D; TK-10; UACC-257; UO-31; HCC 2998.
What all share (assay): inhibition of tumour cell growth, NCI panel, 48 h

Structures are written as SMILES.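 Dose response: 5 concentrations. Exposure: 48 h. Format: 96-well plates. Endpoint: linear interpolation; highest concentration if not reached. GI50: concentration for 50% inhibition of growth.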 The source made the active and inactive calls. Cut-off read from the data, not from the text of the source: active = GI50 up to about 1.1 µM and inactive = higher.

In the case of `O=C(O)c1nc2nc(Cl)c(Cl)nc2[nH]1`, the GI50 with A549, with ACHN, with EKVX, in the assay with HOP-92, with KM12 and in the assay on MCF7 was > 100 µM (inactive) in each case. Moreover, the GI50 in the assay with NCI-H23, with NCI-H460, with NCI/ADR-RES, with RPMI-8226, in the assay on SF-295 and in the assay with SK-MEL-5 was > 100 µM (inactive) throughout. Further, the GI50 in the assay with SNB-19, with T47D, with TK-10 and in the assay on UACC-257 was > 100 µM (inactive) each time.

In the case of `O=C1CCC(Cc2ccc(Cl)cc2Cl)C(=O)N1` (stereo unspecified), the GI50 in the assay with A549 is > 100 µM (inactive); in the assay on ACHN it was > 100 µM (inactive); with EKVX, 65 µM (inactive); in the assay on HOP-92 it was > 100 µM (inactive); in the assay with MCF7 it was > 100 µM (inactive); in the assay with NCI-H23, > 100 µM (inactive). In addition, the GI50 with NCI-H460 is > 100 µM (inactive); with NCI/ADR-RES, > 100 µM (inactive); in the assay on RPMI-8226 it was 79.4 µM (inactive); in the assay on SF-295, > 100 µM (inactive); in the assay with SK-MEL-5 it was > 100 µM (inactive); in the assay on SNB-19 it was > 100 µM (inactive). Also, the GI50 in the assay with T47D is 80.4 µM (inactive); in the assay on TK-10, > 100 µM (inactive); with UACC-257, > 100 µM (inactive); with UO-31, 83.6 µM (inactive).

On to `COC(=O)c1ccc(C)cc1CC1Cc2cccc(C)c2C1=O` (stereo unspecified), for which the GI50 with A549 is 6.58 µM (inactive); with ACHN it was 18.8 µM (inactive); in the assay with EKVX, 2.94 µM (inactive); in the assay with HCC 2998 it was 9.59 µM (inactive); in the assay with HOP-92, 16 µM (inactive); with KM12, 4.08 µM (inactive). Also, the GI50 in the assay with MCF7 is 2.38 µM (inactive); in the assay on NCI-H23 it was 11.1 µM (inactive); in the assay with NCI-H460, 4.89 µM (inactive); in the assay with NCI/ADR-RES, 5.16 µM (inactive); in the assay on SF-295, 6.49 µM (inactive); in the assay on SK-MEL-5 it was 3.59 µM (inactive). The GI50 with SNB-19 was 4.4 µM (inactive); in the assay on T47D, 5.85 µM (inactive); in the assay on TK-10, 12.9 µM (inactive); in the assay with UACC-257, 11.7 µM (inactive); with UO-31 it was 13.4 µM (inactive).

As for `O=C1OCCC[C@H]2O[C@@H](COCc3ccccc3)C[C@@H]12`, the GI50 in the assay on A549, with ACHN, with HOP-92, in the assay on KM12, in the assay with MCF7 and in the assay with NCI-H23 was > 100 µM (inactive) throughout. Further, the GI50 in the assay with NCI-H460, with NCI/ADR-RES, in the assay on RPMI-8226, in the assay on SF-295, in the assay on SK-MEL-5 and in the assay with SNB-19 was > 100 µM (inactive) in each case. The GI50 with T47D, with TK-10, with UACC-257 and with UO-31 was > 100 µM (inactive) each time.

As to `CCCCOC(=O)NC(Nc1cccc(C(F)(F)F)c1)(C(F)(F)F)C(F)(F)F`, the GI50 with A549 is 66.8 µM (inactive); in the assay on ACHN, 47.4 µM (inactive); with EKVX it was 51.5 µM (inactive); in the assay with HOP-92, 23.9 µM (inactive); in the assay with KM12, 75.9 µM (inactive); with MCF7, 59.4 µM (inactive). For the same compound, the GI50 is 50.8 µM (inactive) with NCI-H23; 32.7 µM (inactive) in the assay on NCI-H460; 45.3 µM (inactive) in the assay on NCI/ADR-RES; 17.2 µM (inactive) in the assay on RPMI-8226; 26.6 µM (inactive) in the assay with SF-295; 49.9 µM (inactive) in the assay on SK-MEL-5. Moreover, the GI50 in the assay with SNB-19 is > 100 µM (inactive); with T47D, 13.5 µM (inactive); in the assay on TK-10, 71.1 µM (inactive); in the assay with UACC-257 it was 84.9 µM (inactive); in the assay on UO-31, 46.5 µM (inactive).

For the compound `COc1ccc2c(c1)nc1n2C(c2c(F)cccc2Cl)SC1` (stereo unspecified), the GI50 with A549 was 4.81 µM (inactive); in the assay with ACHN, 20.8 µM (inactive); with EKVX, 26.1 µM (inactive); in the assay with HCC 2998 it was 4.2 µM (inactive); in the assay on HOP-92 it was > 37.3 µM (inactive); in the assay with KM12, 2.76 µM (inactive). The GI50 in the assay with MCF7 is 3.66 µM (inactive); in the assay with NCI-H23 it was 3.59 µM (inactive); with NCI-H460, 3.68 µM (inactive); with NCI/ADR-RES it was 1.56 µM (inactive); with SF-295, 2.74 µM (inactive); in the assay on SK-MEL-5, 3.17 µM (inactive). Also, the GI50 in the assay on T47D is 3.32 µM (inactive); in the assay on TK-10, > 25.9 µM (inactive); in the assay with UACC-257, 18.2 µM (inactive); in the assay with UO-31, > 20.2 µM (inactive).

Turning to `CSC(=S)NN=C1CCCCC1`, the GI50 is 26.7 µM (inactive) in the assay with A549; 21 µM (inactive) in the assay on ACHN; 22.8 µM (inactive) with EKVX; > 100 µM (inactive) with HOP-92; 28.7 µM (inactive) with KM12; 33.8 µM (inactive) in the assay with MCF7. Also, the GI50 in the assay with NCI-H23 was 29.9 µM (inactive); in the assay on NCI-H460, 32.1 µM (inactive); with NCI/ADR-RES it was 24.7 µM (inactive); with RPMI-8226 it was 0.165 µM (active); with SF-295 it was 28.4 µM (inactive); in the assay with SK-MEL-5, 16 µM (inactive). The GI50 was 96.6 µM (inactive) in the assay on SNB-19; 55.1 µM (inactive) in the assay with T47D; 24.9 µM (inactive) in the assay on TK-10; 33.9 µM (inactive) in the assay with UACC-257; > 100 µM (inactive) in the assay with UO-31.

On to `O=C(OC1CN2CCC1CC2)N(c1ccccc1)c1ccccc1` (stereo unspecified), for which the GI50 is > 100 µM (inactive) in the assay with A549; > 100 µM (inactive) in the assay with ACHN; > 100 µM (inactive) with EKVX; 34.7 µM (inactive) with HOP-92; 74.8 µM (inactive) with MCF7; > 100 µM (inactive) with NCI-H23. Besides, the GI50 was > 100 µM (inactive) in the assay with NCI/ADR-RES; > 100 µM (inactive) with RPMI-8226; 51.1 µM (inactive) in the assay with SF-295; 29.4 µM (inactive) in the assay on SK-MEL-5; > 100 µM (inactive) in the assay on SNB-19; > 100 µM (inactive) in the assay with T47D. For the same compound, the GI50 with TK-10 is 56.2 µM (inactive); with UACC-257, 62.5 µM (inactive); with UO-31, 86.9 µM (inactive).

Turning to `CC(C)(C)c1cc(-c2ccc(-c3cc(C(C)(C)C)c(O)c(C(C)(C)C)c3)cc2)cc(C(C)(C)C)c1O`, the GI50 with A549, with ACHN, with EKVX, with HOP-92, in the assay on KM12 and in the assay on MCF7 was > 100 µM (inactive) in each case. Besides, the GI50 in the assay on NCI-H23, in the assay on NCI/ADR-RES, in the assay on RPMI-8226, in the assay with SF-295, in the assay with SK-MEL-5 and with SNB-19 was > 100 µM (inactive) each time. The GI50 with T47D, in the assay with TK-10, in the assay on UACC-257 and with UO-31 was > 100 µM (inactive) throughout.

In the case of `CCOC(=O)C1=C(C)NC(=O)NC1c1ccc(N(CCCl)CCCl)cc1Cl` (stereo unspecified), the GI50 with A549 was 13.7 µM (inactive); with ACHN, 14.5 µM (inactive); in the assay with EKVX it was 22.5 µM (inactive); in the assay with HOP-92, 13 µM (inactive); in the assay with KM12, 19.7 µM (inactive); with MCF7, 13.6 µM (inactive). Moreover, the GI50 in the assay on NCI-H23 was 18.7 µM (inactive); with NCI-H460 it was 13 µM (inactive); in the assay on NCI/ADR-RES, 16.7 µM (inactive); with SF-295 it was 15.8 µM (inactive); in the assay with SK-MEL-5, 14.7 µM (inactive); in the assay with SNB-19, 17.3 µM (inactive). The GI50 with T47D was 5.77 µM (inactive); with TK-10, 18.3 µM (inactive); in the assay with UACC-257, 16 µM (inactive); with UO-31 it was 14.3 µM (inactive).

For `O=S(=O)(O)c1ccc2c(/N=N/c3c(O)ccc4ccccc34)cccc2c1`, the GI50 in the assay on A549 is > 100 µM (inactive); in the assay on ACHN it was > 100 µM (inactive); with EKVX, 61.5 µM (inactive); with HOP-92 it was > 100 µM (inactive); in the assay with KM12, > 100 µM (inactive); with MCF7, > 100 µM (inactive). Moreover, the GI50 with NCI-H23, with NCI-H460, with NCI/ADR-RES, in the assay with RPMI-8226, in the assay on SF-295 and in the assay with SK-MEL-5 was > 100 µM (inactive) each time. For the same compound, the GI50 in the assay on SNB-19, in the assay on T47D, in the assay with TK-10, in the assay with UACC-257 and in the assay with UO-31 was > 100 µM (inactive) each time.

On to `O=C(c1ccc([N+](=O)[O-])cc1)C(Br)C(Br)c1ccnc2ccccc12` (stereo unspecified), for which the GI50 was 8.28 µM (inactive) with A549; 4.61 µM (inactive) in the assay with ACHN; 8.79 µM (inactive) with EKVX; 13.8 µM (inactive) with HOP-92; 1.91 µM (inactive) in the assay on KM12; 2.39 µM (inactive) in the assay with MCF7. Also, the GI50 was 2.55 µM (inactive) in the assay on NCI-H23; 4.5 µM (inactive) in the assay on NCI-H460; 8.45 µM (inactive) with NCI/ADR-RES; 2.23 µM (inactive) with RPMI-8226; 9.06 µM (inactive) with SF-295; 6.34 µM (inactive) in the assay with SK-MEL-5. Also, the GI50 in the assay with SNB-19 is 5.98 µM (inactive); with T47D it was 5.96 µM (inactive); with TK-10, 4.58 µM (inactive); in the assay on UACC-257, 2.18 µM (inactive); with UO-31, 1.77 µM (inactive).
